Experimental data taken from patent US20040132811A1, “Methods and products for inhibiting growth of fungal pathogens on turfgrass” (priority 2003, published 2004).
Entries after “also recorded” stand apart in the source; their conditions may differ.

Test system: anthracnose on bentgrass
Assay: Evaluation of fungicides for control of anthracnose on bentgrass putting greens (field test)
Format: in vivo, Colletotrichum graminicola
Text: The test was established on the 16th green at the Fianna Hills Country Club in Fort Smith, Ark. The green is more than 20 years old and was maintained at 0.156-inch mowing height and with other standard practices used at Fianna Hills. The design was a randomized complete block with 20 treatments and four replications. Individual plots were 4 feet×5 feet and isolated with a spray shield during applications. Treatments were applied on approximate 14- or 28-day schedules. Actual dates of applications were 31 May, 13 Jun., 27 Jun., 12 Jul., 26 Jul., and 9 Aug., all in 2002. Treatments were applied at 4 gal/1000 sq ft using a hand-held CO2-powered sprayer at 20 psi with a TeeJet 8004VS spray tip. The amount of active ingredient per 1000 square feet for each fungicide is provided in Table I. The C3 biocontrol is a strain of Lysobacter enzymogenes that was supplied by Dr. Gary Yuen from the University of Nebraska. The MX 567 active ingredient was first dissolved in acetone and then diluted with water. Treatments were evaluated by recording disease incidence, disease intensity, and turf quality.

[1] = 2 Aug, 2.5 g ai + .05% Tween per 1000 sq ft, days 0, 13, 27, 42, 56, 70
[2] = 19 Aug, 2.5 g ai + .05% Tween per 1000 sq ft, days 0, 13, 27, 42, 56, 70

C[C@H](COc1cc(F)ccc1F)NC(=O)C(C#N)C(C)(C)C (stereo in doubt) [MX 567, rel-2-cyano-N-[(1R)-2-(2,5-difluorophenoxy)-1-methylethyl]-3,3-dimethylbutanamide]
Incidence (%) of plot area with anthracnose symptoms [1]: 23%
Intensity (0 = no disease to 4 = dead) [1]: 1.0
Severity (incidence × intensity) [1]: 23
Incidence (%) of plot area with anthracnose symptoms (16 Jul, 2.5 g ai + .05% Tween per 1000 sq ft, days 0, 13, 27, 42, 56, 70): 21%
Incidence (%) of plot area with anthracnose symptoms [2]: 29%
Intensity (0 = no disease to 4 = dead) [2]: 1.0
Severity (incidence × intensity) [2]: 29
Turf quality (0-9 rating scale: 0 = all dead, 9 = excellent) [2]: 6.3
Incidence (%) of plot area with anthracnose symptoms (26 Jul, 2.5 g ai + .05% Tween per 1000 sq ft, days 0, 13, 27, 42, 56, 70): 2%
turf quality, in words (summary of Table I): increases in turf quality; also recorded: highest turf quality
disease severity, in words (summary of Table I versus nontreated checks): significant reductions in disease severity
